Assays:
Type in all cases: cell-based
[1] = system: white spruce somatic embryos; test: PEG replacement during development, maturation frequency (Example 6); settings: treatment 2: PEG constant, lactose added from the third week; versus PEG control; FIG. 2
Procedure: (§1) This experiment was carried out to observe the effect of replacing the non-permeating water stress with a permeating water stress during development. Thus, immature somatic embryos from suspension culture were precultured in 1/20 strength hormone medium for one week then transferred to maturation medium containing 3% sucrose, 20 μM ABA and adjusted to 290 mmol/kg with PEG. They were transferred to fresh medium weekly in which the osmoticum and ABA was increased. For the control (treatment 1) the PEG concentration was increased (as outlined in Example 4, treatment 6). In treatment 2, the PEG remained constant and water potential was increased by adding lactose (treatment 2). In treatment 3, PEG was increased after the first week, then lactose was added at the third and fourth weeks, and in the fifth week PEG was removed and replaced completely with lactose. Treatment 4 was the same as treatment 3, except that sucrose was used in place of lactose. Treatment 5 was similar to treatment 3, except that PEG was replaced with lactose earlier so that PEG was replaced totally by lactose by the fourth week. Total development time was six weeks.
Each treatment comprised nine replicates. The number of embryos per treatment were scored and means prepared. […] The trend was that as PEG was replaced by permeating osmotica, the maturation frequency declined slightly. […]

[2] = system: somatic seedlings of white spruce; test: Germination and shoot development after replacing PEG with alternative osmotica (Example 8); settings: for shoot development frequency of somatic seedlings: after 4-5 weeks growth
Procedure: as §1
White spruce somatic embryos were produced using all treatments described in Example 6 (replacement of PEG with sucrose or lactose). […] Embryos were desiccated for two weeks, then rehydrated and visually selected for subsequent transfer to fresh medium. The embryos from all treatments germinated to produce root and epicotyl elongation (i e., 100% germination). Subsequent growth differed amongst the treatments. After four to five weeks growth, 87% of somatic seedlings from treatment 1 had visible new shoot growth (new needles). All other treatments had much lower shoot emergence frequencies.

[3] = system: Douglas fir somatic embryos; test: Douglas fir somatic embryogenesis (Example 11); settings: replacing PEG at week 5 or week 6; compared with PEG being maintained
Procedure: Douglas fir may be cultured using sucrose at 1-3% (30-90 mM), however, other sugars may be used at the same concentrations. Maintenance cultures usually contain the sugar at about 1%. […] Douglas fir embryogenic tissue was induced from developing seed. Embryos contained in megametophytes were induced and maintained on TX maintenance medium having 1% sucrose. This medium contained 0.2 g/L glutamine and 0.2 g/L casein hydrolysate. Selected embryogenic tissue was subcultured biweekly per petri dish. Medium was solidified with 2.4 g/L PHYTAGEL™. This medium contained 9 μM 2,4-D and 4.5 μM BA. Liquid suspension cultures were maintained in flasks containing 50 mL liquid maintenance medium Liquid cultures were subcultured weekly. For maturation, the embryogenic suspension was first precultured in liquid medium without growth regulators, and subcultured weekly. The water potential of the maintenance cultures and precultures remained below 150 mmol/kg. After one or two weeks of preculture, 1 to 2 g of filtered tissue was resuspended in 10 mL fresh medium and 0.75 mL of the new suspension was pipetted onto the solid maturation medium. Maturation medium contained calcium chloride at 105 mg/L, and ammonium nitrate was included at 400 mg/L. Glutamine was used at 0.8 g/L for the first week then reduced to 0.1 g/L thereafter. Casein hydrolysate was maintained at 0.2 g/L. The sugar was increased to 2-3% and the medium was solidified with Phytagel at 2.8 to 3.4 g/L. ABA was added into the medium after filter sterilization. The maturation medium also contained PEG. The ABA and water potential were raised following the schedule in the following table.
In some instances, the PEG was reduced and the water potential made up to the desired level using lactose at 0% in the first week, 1% in week 2, 4% in weeks 3 and 4, 5% in week 5, and 6% in week 6. Although this allowed a firmer gel to set than otherwise would occur with PEG alone, it may not provide any other benefit over full PEG (see, for example, Table 8), particularly if liquid culture medium is used. […] The embryos were desiccated and stored in a freezer as described for spruce, or germinated directly without desiccation. For germination, embryos were placed on half-strength basal medium containing 0.4 g/L calcium nitrate, 0.2 g/L ammonium nitrate, no hormones and 2% sucrose and 0.6% agar. These were grown in the light.

[4] = system: white spruce somatic embryos; test: Effect of water stress and ABA on somatic embryo moisture contents (Example 4); settings: treatment 2: mannitol 290, 400, 540 mmol/kg with ABA 20, 30, 40 μM; six weeks
Procedure: Water potentials were measured for liquid media containing various osmotica at a range of concentrations, which were plotted on a curve. Determinations were made using a vapour pressure osmometer (Wescor). Moisture content determinations were done using methods described previously by Attree et al. (U.S. Pat. No. 5,464,769).
Embryos were cultured on medium containing 3% sucrose and ABA, with additional osmoticum adjusted to vary water potentials, as shown in Table 4.
Embryos were cultured for six weeks and moisture contents determined. Determinations for each treatment were made weekly, with three replicates per treatment. 50 embryos per replicate were used. In some instances, particularly for the control with low osmoticum, insufficient embryos were produced. In these cases, the minimum number of embryos used per replicate was thirty. For weeks 0 to 2, the embryos were too small to be used for moisture content determinations, so whole tissue was used instead.

Row | Compound | maturation frequency [1] | shoot development frequency of somatic seedlings ([2]; Treatment 2: 6.6% lactose, partial PEG replacement) | shoot development frequency of somatic seedlings ([2]; Treatment 3: 10% lactose, mid replacement) | shoot development frequency of somatic seedlings ([2]; Treatment 5: 10% lactose early replacement) | appearance of embryos before desiccation ([2]; treatment 5 of Example 6 (PEG replaced early with lactose)) | embryo development result [3] | shoot development frequency of somatic seedlings ([2]; Treatment 4: 13% sucrose mid replacement) | appearance of embryos before desiccation ([2]; treatment 4 of Example 6 (PEG replaced with sucrose)) | greening of embryos [4]
1 | OC[C@H]1O[C@@H](O[C@H]2[C@H](O)[C@@H](O)C(O)O[C@@H]2CO)[C@H](O)[C@@H](O)[C@H]1O (stereo partly shown) [lactose] | slight decline | 1.5% | 76.5% | 49.2% | very slight splitting of the root cap region | very good results |  |  | 
2 | OC[C@H]1O[C@@](CO)(O[C@H]2O[C@H](CO)[C@@H](O)[C@H](O)[C@H]2O)[C@@H](O)[C@@H]1O [sucrose] |  |  |  |  |  | very good results | 1.6% | very slight splitting of the root cap region | 
3 | OC[C@@H](O)[C@@H](O)[C@H](O)[C@H](O)CO [mannitol] |  |  |  |  |  |  |  |  | greening was prevented

— US6627441B1, “Increasing levels of growth regulator and/or water stress during embryo development” (priority 1998, dated 2003)
